Series [1] has as its system neointimal hyperplasia (IH) in balloon-injured carotid arteries. Briefly: Morphometric analysis of neointima after carotid artery balloon angioplasty. Format: in vivo, rat. The note with it: two i.v. injections (day 0 and 4), 14 days after angioplasty.
Experimental: Materials and Methods: Rat carotid artery balloon angioplasty. Carotid artery balloon angioplasty was performed in male Sprague-Dawley rats (Charles River; about 400 g) as previously described (5, 20). Briefly, rats were anesthetized with isoflurane (5% for inducing and 2.5% for maintaining anesthesia). A longitudinal incision was made in the neck and carotid arteries were exposed. A 2-F balloon catheter (Edwards Lifesciences, Irvine, CA) was inserted through an arteriotomy on the left external carotid artery. To produce arterial injury, the balloon was inflated at a pressure of 2 atm and withdrawn to the carotid bifurcation and this action was repeated three times. The external carotid artery was then permanently ligated, and blood flow was resumed. Drug-loaded biomimetic nanoclusters or compound solutions were injected via rat tail vein. […]
Materials and Methods: Morphometric analysis of neointima. […] Planimetric parameters as follows were measured on the sections and calculated using Image J: area inside external elastic lamina (EEL area), area inside internal elastic lamina (IEL area), lumen area, intima area (=IEL area−lumen area), and media area (=EEL area−IEL area). Intimal hyperplasia was quantified as a ratio of intima area versus media area. […] The means from all the animals in each treatment group were then averaged, and the standard error of the mean (SEM) was calculated. […]
Series [2] is described as follows: Drug loading level (HPLC / UV-Vis). Format: physicochemical. Conditions: drug loaded into nanoclusters. The procedure: (d). Characterizations. 1H NMR spectra of all polymer products were recorded on a Varian Mercury Plus 300 spectrometer in DMSO-d6 or CDCl3 at 25° C. Molecular weights (Mn and Mw) and polydispersity indices (PDI) of the polymers were determined by a gel permeation chrornatographer (GPC) equipped with a refractive index detector, a viscometer detector, and a light scattering detector (Viscotek, USA), DMF with 0.01 M of LiBr was used as the mobile phase with. Fourier transform infrared (FT-IR) spectra were recorded on a Bruker Tensor 27 FT-IR spectrometer. The sizes and morphologies of the NPs were studied by dynamic light scattering (DLS, ZetaSizer Nano ZS90, Malvern Instruments, USA) and transmission electron microscopy (TEM, FEI Tecnai G2 F30 TWIN 300 KV, E.A, Fischione Instruments, Inc. USA). The zeta potentials were measured by ZetaSizer Nano ZS90 (Malvern Instruments, USA). The rapamycin loading level was measured by high-performance liquid chromatography (HPLC) using ultraviolet (UV) detection at 278 nm. The JQ1 loading level was measured by UV-Vis spectrometer at 323 nm.

Series [3] can be described thus: In vitro drug release in PBS (dialysis bag). Format: physicochemical. Conditions: from drug-loaded biomimetic nanoclusters, PBS pH 7.4, 37° C. The procedure: The in vitro drug release profiles from both rapamycin-loaded and JQ1-loaded biomimetic nanoclusters were studied in PBS (pH=7.4) (19). Briefly, drug-loaded biomimetic nanoclusters in the PBS (1 mg/mL, 5 mL) were enclosed in a cellulose membrane dialysis bag (molecular weight cut-off, 8 kDa). The dialysis bags were immersed in 100 mL of PBS, which was then kept in a horizontal laboratory shaker (100 rpm) at 37° C. At predetermined time intervals, 5 mL samples were collected and replaced with the same volume of PBS. The amounts of rapamycin and JQ1 in the collected samples were measured by HPLC and UV-Vis spectrometer, respectively, as indicated above.

For a further series, the system named is restenosis. Conditions: rat model, earlier study (ref 5); cited from earlier work.
A further series relates to human umbilical vein ECs. Conditions: cited from earlier work.
In series [4] the test system is pro-inflammatory activation of ECs and monocyte recruiting. Conditions: hypercholesterolemic murine model of atherosclerosis; cited from earlier work.

The text below walks through data of patent US12161726B2, “Biomimetic vesicles and uses thereof” (Ohio State Innovation Foundation, priority 2018, dated 2024).

Consider `Cc1sc2c(c1C)C(c1ccc(Cl)cc1)=N[C@@H](CC(=O)OC(C)(C)C)c1nnc(C)n1-2` [JQ1], for which the “Effect on IH (I/M ratio)” value in series [1] was “failed to mitigate IH”. Also, in series [2], the Drug loading level is given as 21.5%. For the same compound, the “In vitro drug release profile” value in series [3] is on record as “released in a sustainable manner without a burst release”. For the same compound, the Inhibition of restenosis result in the series with restenosis was “effective inhibitor of restenosis”. In the series with human umbilical vein ECs, the “TNFα-induced pathogenic EC activation (E-selectin, VCAM1, NF-κB translocation)” value is “inhibits TNFα-induced pathogenic EC activation”. The “Pro-inflammatory activation of ECs and monocyte recruiting in vivo” value in series [4] was “inhibitory effects”.
